From PMC4035429 (Neuroscience, 2014)
Each block holds one substance with its values, some of them ahead of it.

How the values were obtained:
[1] = target: LRP1 (Rattus norvegicus, UniProt G3V928); assay: Aβ efflux through Z310 monolayer with LRP1 inhibition; format: cell-based; conditions: mean±SD
[2] = tested on: Aβ; conditions: ref Kanekiyo and Bu, 2009; cited from earlier work
[3] = tested on: Z310 cells
[4] = tested on: LRP1; assay: LRP1 knockdown efficiency in Z310 cells by Western blot; format: cell-based, rat; conditions: 10nM siRNA, LRP1 to β-actin ratio
[5] = LRP1 knockdown by siRNA plus 10mg/ml IVIG, p<0.001, n=3

Sequence of LRP1 (Rattus norvegicus, UniProt G3V928) (G3V928 20-4545): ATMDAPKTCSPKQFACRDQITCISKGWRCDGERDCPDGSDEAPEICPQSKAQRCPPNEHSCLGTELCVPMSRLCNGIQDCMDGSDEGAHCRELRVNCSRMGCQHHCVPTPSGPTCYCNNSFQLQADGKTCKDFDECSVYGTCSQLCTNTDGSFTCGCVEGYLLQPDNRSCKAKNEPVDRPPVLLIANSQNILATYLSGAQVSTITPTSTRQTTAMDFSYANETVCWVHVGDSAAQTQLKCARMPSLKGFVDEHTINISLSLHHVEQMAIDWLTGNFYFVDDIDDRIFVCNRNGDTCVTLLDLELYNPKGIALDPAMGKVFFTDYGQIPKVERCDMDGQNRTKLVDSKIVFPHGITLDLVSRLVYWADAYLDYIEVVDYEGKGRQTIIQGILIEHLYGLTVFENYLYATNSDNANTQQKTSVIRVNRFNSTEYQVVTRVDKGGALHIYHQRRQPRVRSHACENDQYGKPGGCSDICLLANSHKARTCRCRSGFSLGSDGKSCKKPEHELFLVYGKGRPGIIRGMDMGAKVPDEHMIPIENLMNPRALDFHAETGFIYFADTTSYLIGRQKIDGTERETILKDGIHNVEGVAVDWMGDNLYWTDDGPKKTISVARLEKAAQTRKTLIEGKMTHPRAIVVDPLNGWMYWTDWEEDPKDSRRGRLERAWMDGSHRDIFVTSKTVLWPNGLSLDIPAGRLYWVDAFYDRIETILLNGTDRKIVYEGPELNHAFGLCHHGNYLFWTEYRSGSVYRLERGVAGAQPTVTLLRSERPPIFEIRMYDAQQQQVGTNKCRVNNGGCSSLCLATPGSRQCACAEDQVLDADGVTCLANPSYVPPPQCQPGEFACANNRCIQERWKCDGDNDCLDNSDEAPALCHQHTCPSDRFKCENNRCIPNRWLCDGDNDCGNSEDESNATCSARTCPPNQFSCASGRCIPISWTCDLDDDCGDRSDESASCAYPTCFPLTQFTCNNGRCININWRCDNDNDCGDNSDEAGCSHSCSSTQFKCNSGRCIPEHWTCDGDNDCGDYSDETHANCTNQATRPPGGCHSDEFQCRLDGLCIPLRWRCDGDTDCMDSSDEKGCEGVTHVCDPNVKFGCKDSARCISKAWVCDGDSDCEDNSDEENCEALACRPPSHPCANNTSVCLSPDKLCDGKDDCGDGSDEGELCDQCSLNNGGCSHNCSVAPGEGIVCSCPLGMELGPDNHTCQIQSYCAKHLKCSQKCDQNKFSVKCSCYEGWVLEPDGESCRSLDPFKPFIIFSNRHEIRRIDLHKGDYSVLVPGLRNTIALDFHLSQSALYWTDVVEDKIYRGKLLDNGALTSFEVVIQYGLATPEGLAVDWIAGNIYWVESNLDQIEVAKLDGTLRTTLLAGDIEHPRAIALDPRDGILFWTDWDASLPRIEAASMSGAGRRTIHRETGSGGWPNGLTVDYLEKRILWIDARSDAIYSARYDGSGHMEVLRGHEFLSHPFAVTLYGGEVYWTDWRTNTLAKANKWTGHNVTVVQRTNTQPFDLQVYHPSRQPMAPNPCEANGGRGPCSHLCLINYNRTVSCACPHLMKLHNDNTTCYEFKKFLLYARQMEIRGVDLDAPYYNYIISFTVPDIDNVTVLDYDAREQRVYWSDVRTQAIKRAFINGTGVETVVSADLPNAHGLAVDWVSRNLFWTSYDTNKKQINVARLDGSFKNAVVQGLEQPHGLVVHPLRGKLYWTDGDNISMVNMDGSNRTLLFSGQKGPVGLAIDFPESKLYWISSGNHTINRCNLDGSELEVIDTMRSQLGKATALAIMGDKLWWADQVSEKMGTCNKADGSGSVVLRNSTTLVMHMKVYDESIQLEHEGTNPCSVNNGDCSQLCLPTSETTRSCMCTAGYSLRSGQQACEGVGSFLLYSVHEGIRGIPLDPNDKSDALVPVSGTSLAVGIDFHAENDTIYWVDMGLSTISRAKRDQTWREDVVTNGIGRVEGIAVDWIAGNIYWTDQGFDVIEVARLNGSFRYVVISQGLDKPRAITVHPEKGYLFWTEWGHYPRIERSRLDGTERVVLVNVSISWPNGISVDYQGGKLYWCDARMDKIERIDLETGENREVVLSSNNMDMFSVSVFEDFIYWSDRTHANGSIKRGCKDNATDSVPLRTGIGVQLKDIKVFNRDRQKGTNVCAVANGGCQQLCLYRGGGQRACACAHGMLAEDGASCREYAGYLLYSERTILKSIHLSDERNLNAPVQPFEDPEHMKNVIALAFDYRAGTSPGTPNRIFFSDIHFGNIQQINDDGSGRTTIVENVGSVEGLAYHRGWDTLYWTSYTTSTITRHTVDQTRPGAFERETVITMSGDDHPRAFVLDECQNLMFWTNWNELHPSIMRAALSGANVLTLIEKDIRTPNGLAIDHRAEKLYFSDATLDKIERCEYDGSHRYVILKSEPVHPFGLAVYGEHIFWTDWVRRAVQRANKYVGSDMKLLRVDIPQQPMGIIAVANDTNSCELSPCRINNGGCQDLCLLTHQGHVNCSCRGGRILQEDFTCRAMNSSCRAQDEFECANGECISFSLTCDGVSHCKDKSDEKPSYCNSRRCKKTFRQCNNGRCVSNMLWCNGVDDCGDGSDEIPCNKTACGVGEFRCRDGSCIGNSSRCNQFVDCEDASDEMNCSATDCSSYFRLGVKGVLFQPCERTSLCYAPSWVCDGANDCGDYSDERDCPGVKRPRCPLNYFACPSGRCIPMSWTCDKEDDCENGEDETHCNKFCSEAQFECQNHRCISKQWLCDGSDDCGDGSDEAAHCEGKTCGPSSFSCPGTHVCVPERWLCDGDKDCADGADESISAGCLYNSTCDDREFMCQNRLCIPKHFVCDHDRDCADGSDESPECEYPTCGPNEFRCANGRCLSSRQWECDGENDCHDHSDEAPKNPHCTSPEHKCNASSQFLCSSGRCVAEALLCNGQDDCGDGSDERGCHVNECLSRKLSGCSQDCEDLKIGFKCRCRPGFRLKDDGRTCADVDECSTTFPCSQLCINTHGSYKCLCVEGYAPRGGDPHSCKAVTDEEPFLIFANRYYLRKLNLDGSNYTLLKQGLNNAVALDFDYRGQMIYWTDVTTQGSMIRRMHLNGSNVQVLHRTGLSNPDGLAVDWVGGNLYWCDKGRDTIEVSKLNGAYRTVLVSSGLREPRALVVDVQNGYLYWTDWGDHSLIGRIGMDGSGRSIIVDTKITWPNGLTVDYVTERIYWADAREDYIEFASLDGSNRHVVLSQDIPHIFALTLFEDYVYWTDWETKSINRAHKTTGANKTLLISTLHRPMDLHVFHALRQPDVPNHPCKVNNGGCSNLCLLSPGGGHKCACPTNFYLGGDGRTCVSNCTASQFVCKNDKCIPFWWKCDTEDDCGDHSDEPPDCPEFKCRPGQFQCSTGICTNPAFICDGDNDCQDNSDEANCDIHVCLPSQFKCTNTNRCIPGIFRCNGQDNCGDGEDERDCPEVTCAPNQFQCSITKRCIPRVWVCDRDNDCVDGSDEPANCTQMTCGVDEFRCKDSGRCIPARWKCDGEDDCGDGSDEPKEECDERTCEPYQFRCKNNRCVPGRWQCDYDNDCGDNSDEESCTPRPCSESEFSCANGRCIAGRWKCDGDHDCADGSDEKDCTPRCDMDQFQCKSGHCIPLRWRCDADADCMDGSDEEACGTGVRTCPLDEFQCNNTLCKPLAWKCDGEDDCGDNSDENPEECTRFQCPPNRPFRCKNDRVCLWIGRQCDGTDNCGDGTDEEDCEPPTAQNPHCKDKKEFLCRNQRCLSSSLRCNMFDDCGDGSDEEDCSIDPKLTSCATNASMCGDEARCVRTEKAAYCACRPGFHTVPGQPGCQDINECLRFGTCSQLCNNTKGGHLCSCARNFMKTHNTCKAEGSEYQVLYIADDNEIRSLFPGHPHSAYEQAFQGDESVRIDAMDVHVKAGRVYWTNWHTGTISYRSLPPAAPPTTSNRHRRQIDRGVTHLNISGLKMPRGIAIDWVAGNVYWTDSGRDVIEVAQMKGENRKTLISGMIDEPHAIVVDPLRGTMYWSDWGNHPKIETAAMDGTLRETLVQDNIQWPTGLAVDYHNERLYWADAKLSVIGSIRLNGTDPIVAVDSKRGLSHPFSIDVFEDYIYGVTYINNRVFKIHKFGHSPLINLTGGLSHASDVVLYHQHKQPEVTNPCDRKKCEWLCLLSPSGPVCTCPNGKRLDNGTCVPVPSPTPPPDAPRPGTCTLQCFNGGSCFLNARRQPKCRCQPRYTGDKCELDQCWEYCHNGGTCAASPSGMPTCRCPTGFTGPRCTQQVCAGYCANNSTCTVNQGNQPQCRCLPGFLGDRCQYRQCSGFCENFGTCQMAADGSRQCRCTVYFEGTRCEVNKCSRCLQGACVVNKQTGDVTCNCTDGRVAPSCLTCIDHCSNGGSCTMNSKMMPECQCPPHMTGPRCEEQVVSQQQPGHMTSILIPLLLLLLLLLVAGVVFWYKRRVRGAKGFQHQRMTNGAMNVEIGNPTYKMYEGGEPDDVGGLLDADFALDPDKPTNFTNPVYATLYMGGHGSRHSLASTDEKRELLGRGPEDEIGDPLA

- IVIG-induced Aβ efflux from inner chambers at 1 hr ([1]; 100 nM RAP plus 10mg/ml IVIG, IVIG alone 2.52±0.22, p<0.001, n=5): 1.77 ± 0.1 ng/mL
- IVIG-induced Aβ efflux from inner chambers at 3 hrs ([1]; 100 nM RAP plus 10mg/ml IVIG, IVIG alone 7.61±0.91, p<0.001, n=5): 5.41 ± 0.92 ng/mL
Substance: RAP: recombinant receptor-associated protein (EMD Millipore), a functional inhibitor of LRP1
- concentration at which RAP could bind Aβ [2]: above 500 nM

Substance: Aβ1-40: beta-amyloid 1-40 peptide (gift from Eli Lilly) added to the inner chamber at 1 μM
- change of TEER between treated and untreated samples [3]: little change

Substance: LRP1 siRNA: siRNA from Sigma-Aldrich; sense 5′ -CCUAUCUUUGAGAUCCGAA-3′, antisense 5′ -UUCGGAUCUCAAAGAUAGG-3′ (chemistry not given here)
- IVIG-induced Aβ efflux from inner chambers after 1 hr Aβ added [1, 5]: 1.1 ± 0.28 ng/mL
- IVIG-induced Aβ efflux from inner chambers after 3 hrs Aβ added [1, 5]: 2.86 ± 0.86 ng/mL
- Aβ concentration in outer chamber 1 hr after Aβ added ([1]; LRP1 knockdown by siRNA, without IVIG, 1 μM Aβ, scrambled siRNA control 0.28±0.08, p<0.05, n=3): 0.02 ± 0.004 ng/mL
- Aβ concentration in outer chamber 3 hrs after Aβ added ([1]; LRP1 knockdown by siRNA, without IVIG, 1 μM Aβ, scrambled siRNA control 4.0±0.31, p<0.05, n=3): 1.17 ± 0.38 ng/mL
- reduction of LRP1 at protein expression levels as compared to the scrambled siRNA controls [4]: 84.7%
